# Reference: ChEMBL document CHEMBL4673257, “Azepino-indazoles as calcitonin gene-related peptide (CGRP) receptor antagonists” (Bioorg Med Chem Lett, 2021)
# pIC50, pKi: −log10 of the molar value.
# What was measured:
# [1] = Oral bioavailability in rat at 10 mg/kg; type: ADME, organism-based; conditions: in vivo
# [2] = molecular target: T1, Calcitonin gene-related peptide type 1 receptor (Homo sapiens, UniProt O60894+Q16602); assay: Antagonist activity at human CGRP receptor
# [3] = molecular target: T1, Calcitonin gene-related peptide type 1 receptor; assay: Antagonist activity at human CGRP receptor in human SK-N-MC cells assessed as inhibition of CGRP-induced cAMP production; type: functional, cell-based
# Callithrix jacchus [4] = assay: Antimigraine activity in human CGRPalpha-induced migraine marmoset model assessed as reduction in facial blood flow at 5 mg/kg, sc administered 30 mins after CGRP stimulation and measured after 105 mins by laser doppler method relative to control; type: functional; parameters: scale not given: the % may be the effect or the level left; conditions: time 135 min, 2.25 h
# Callithrix jacchus [5] = assay: Antimigraine activity in human CGRPalpha-induced migraine marmoset model assessed as reduction in facial blood flow at 5 mg/kg, sc administered 30 mins after CGRP stimulation and measured after 60 mins by laser doppler method relative to control; type: functional; parameters: scale not given: the % may be the effect or the level left; conditions: time 90 min, 1.5 h
# Callithrix jacchus [6] = assay: Antimigraine activity in human CGRPalpha-induced migraine marmoset model assessed as reduction in facial blood flow at 5 mg/kg, sc administered 30 mins after CGRPalpha stimulation measured after 15 mins by laser doppler method relative to control; type: functional; parameters: scale not given: the % may be the effect or the level left; conditions: time 45 min, 0.75 h
# [7] = Protein binding human plasma assessed as unbound fraction; type: ADME, cell-free
# [8] = Metabolic stability in dog liver microsomes assessed as half life; type: ADME, Canis lupus familiaris, Microsome
# [9] = Metabolic stability in rat liver microsomes assessed as half life; type: ADME, Microsome
# [10] = Metabolic stability in monkey liver microsomes assessed as half life; type: ADME, Macaca mulatta, Microsome; conditions: rhesus monkey
# [11] = Metabolic stability in human liver microsomes assessed as half life; type: ADME, Microsome
# T1 sequence (Q16602 whole entry, one chain of several): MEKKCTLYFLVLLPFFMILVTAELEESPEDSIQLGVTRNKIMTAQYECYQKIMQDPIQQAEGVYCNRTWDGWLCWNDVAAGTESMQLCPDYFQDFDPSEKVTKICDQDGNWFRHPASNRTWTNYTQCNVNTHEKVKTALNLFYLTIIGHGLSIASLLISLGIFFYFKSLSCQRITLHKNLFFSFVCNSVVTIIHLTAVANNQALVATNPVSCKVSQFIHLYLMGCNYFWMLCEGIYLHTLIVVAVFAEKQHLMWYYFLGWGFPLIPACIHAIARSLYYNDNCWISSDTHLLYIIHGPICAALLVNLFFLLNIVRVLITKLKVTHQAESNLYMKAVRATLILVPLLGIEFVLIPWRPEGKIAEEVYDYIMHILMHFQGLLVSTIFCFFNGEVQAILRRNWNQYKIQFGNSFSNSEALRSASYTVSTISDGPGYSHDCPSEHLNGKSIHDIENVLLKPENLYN
Compound,bioavailability [1],pKi [2],other results
O=C(N[C@@H]1Cc2ccc3[nH]ncc3c2CN(CCc2ccncc2)C1=O)N1CCC(N2Cc3ccccc3NC2=O)CC1,,8.15,
O=C(C[C@@H]1Cc2cc(Cl)c3[nH]ncc3c2CN(CC(F)(F)F)C1=O)N1CCC(c2cc3ccccc3[nH]c2=O)CC1,3.4%,9.27,
CN(C)CCN1Cc2c(ccc3[nH]ncc23)C[C@@H](NC(=O)N2CCC(N3Cc4ccccc4NC3=O)CC2)C1=O,,6.77,
CC(C)N1Cc2c(ccc3[nH]ncc23)C[C@@H](NC(=O)N2CCC(N3Cc4ccccc4NC3=O)CC2)C1=O,,7.23,
O=C(N[C@@H]1Cc2ccc3[nH]ncc3c2CN(CCN2CCOCC2)C1=O)N1CCC(N2Cc3ccccc3NC2=O)CC1,,7.30,
O=C(N[C@@H]1Cc2ccc3[nH]ncc3c2CN(Cc2ccccc2)C1=O)N1CCC(N2Cc3ccccc3NC2=O)CC1,,7.92,
O=C(N[C@@H]1Cc2ccc3[nH]ncc3c2CN(Cc2ccncc2)C1=O)N1CCC(N2Cc3ccccc3NC2=O)CC1,,7.66,
O=C(C[C@@H]1Cc2cc(Cl)c3[nH]ncc3c2CN(CC(F)(F)F)C1=O)N1CCC(c2cc3cccc(F)c3[nH]c2=O)CC1,,8.22,
CC(C)CN1Cc2c(ccc3[nH]ncc23)C[C@@H](NC(=O)N2CCC(N3Cc4ccccc4NC3=O)CC2)C1=O,,7.85,
O=C(N[C@@H]1Cc2ccc3[nH]ncc3c2CN(C2CCNCC2)C1=O)N1CCC(N2Cc3ccccc3NC2=O)CC1,,6.54,
CN1Cc2c(ccc3[nH]ncc23)C[C@@H](NC(=O)N2CCC(N3Cc4ccccc4NC3=O)CC2)C1=O,,6.43,

# The next lines start with results.
bioavailability [1],pKi [2],Compound,other results
4.5%,9.12,CC(C)(C)CN1Cc2c(cc(Cl)c3[nH]ncc23)C[C@@H](CC(=O)N2CCC(c3cc4ccccc4[nH]c3=O)CC2)C1=O,
,9.64,O=C(C[C@@H]1Cc2cc(Cl)c3[nH]ncc3c2CN(CC(F)(F)F)C1=O)N1CCC(N2Cc3ccccc3NC2=O)CC1,
5.5%,10.05,O=C(C[C@@H]1Cc2cc(Cl)c3[nH]ncc3c2CN(CC(F)(F)F)C1=O)N1CCC(n2c(=O)[nH]c3ncccc32)CC1,
17%,10.00,O=C(C[C@@H]1Cc2cc(Cl)c3[nH]ncc3c2CN(CC(F)(F)F)C1=O)N1CCC(N2CCc3ccccc3NC2=O)CC1,pIC50 [3]: 9.57; Activity (Callithrix jacchus [4]): 47%; Activity (Callithrix jacchus [5]): 41%; Activity (Callithrix jacchus [6]): 27%; fraction unbound [7]: 0.028; half-life [8]: 3.1 min; half-life [9]: 2.2 min; half-life [10]: 2.4 min; half-life [11]: 3.6 min
4.7%,9.51,CC(C)(C)CN1Cc2c(cc(Cl)c3[nH]ncc23)C[C@@H](CC(=O)N2CCC(N3Cc4cccc(F)c4NC3=O)CC2)C1=O,
12%,8.22,CC(C)(C)CN1Cc2c(cc(Cl)c3[nH]ncc23)C[C@@H](CC(=O)N2CCC(c3cc4cccc(F)c4[nH]c3=O)CC2)C1=O,
1.8%,9.39,CC(C)(C)CN1Cc2c(cc(Cl)c3[nH]ncc23)C[C@@H](CC(=O)N2CCC(N3Cc4ccccc4NC3=O)CC2)C1=O,
,8.31,CC(C)(C)CN1Cc2c(ccc3[nH]ncc23)C[C@@H](NC(=O)N2CCC(N3Cc4ccccc4NC3=O)CC2)C1=O,
,8.04,O=C(C[C@@H]1Cc2cc(Cl)c3[nH]ncc3c2CN(CC(F)(F)F)C1=O)N1CCC(N2CCc3cccc(F)c3NC2=O)CC1,
,8.48,O=C(C[C@@H]1Cc2cc(Cl)c3[nH]ncc3c2CN(CC(F)(F)F)C1=O)N1CCC(n2c(=O)[nH]c3ccccc32)CC1,
,9.00,O=C(N[C@@H]1Cc2cc(Cl)c3[nH]ncc3c2CN(Cc2ccccc2)C1=O)N1CCC(N2Cc3ccccc3NC2=O)CC1,
,8.82,CC(C)(C)CN1Cc2c(cc(Cl)c3[nH]ncc23)C[C@@H](NC(=O)N2CCC(N3Cc4ccccc4NC3=O)CC2)C1=O,
